Data: PMC8145107 (Pharmaceutics, 2021)

Experiments:
NCI-H460 cells [1] = assay: Cell death by PI staining / flow cytometry, NCI-H460; assay type: cell-based, human; details: NCI-H460; cisplatin 3 µM, Gef 30 µM, alone
Experimental: (§1) Cells were plated in 6-well culture plates at a density of 1 × 10^5 cells/well. Compounds were applied to the cells immediately after seeding. When cells were harvested, cells were washed once with 1× phosphate-buffered saline (PBS), dissociated using Trypsin-EDTA, and centrifuged at 13,000 rpm for 3 min at 4 °C. Next, 1 mL of 1× PBS was added to wash the pellet again. Finally, 1 mL of 1× PBS and 1 μg/mL of propidium iodide (PI) were added to each polystyrene round-bottom tube. Flow cytometric analysis was performed using a FACS flow cytometer (BD Bioscience). To measure cell death, 10^4 cells were counted, and PI-stained cells were analyzed. FACS analysis in accordance with the manufacturer’s instruction. […]
(§2) Table S1. CI values of NSCLC cell lines.
(§3) Cell line Combination drug NA 10 µM NA 20 µM
(§4) CI values were calculated from the data of percent inhibition of cell death by PI staining. Each CI
(§5) value was analyzed by CompuSyn software. […]

A549 cells = assay: Cell death by PI staining / flow cytometry, A549; assay type: cell-based, human; details: cisplatin 3 µM, Gef 30 µM, alone
Experimental: as §1, §2, §3, §4, §5

CYP450 2D6 = CYP450 2D6 (Homo sapiens, UniProt P10635); assay: CYP450 enzyme inhibition, 2D6; assay type: in vitro ADME; details: 10 μM
Chain of CYP450 2D6 (P10635 whole entry): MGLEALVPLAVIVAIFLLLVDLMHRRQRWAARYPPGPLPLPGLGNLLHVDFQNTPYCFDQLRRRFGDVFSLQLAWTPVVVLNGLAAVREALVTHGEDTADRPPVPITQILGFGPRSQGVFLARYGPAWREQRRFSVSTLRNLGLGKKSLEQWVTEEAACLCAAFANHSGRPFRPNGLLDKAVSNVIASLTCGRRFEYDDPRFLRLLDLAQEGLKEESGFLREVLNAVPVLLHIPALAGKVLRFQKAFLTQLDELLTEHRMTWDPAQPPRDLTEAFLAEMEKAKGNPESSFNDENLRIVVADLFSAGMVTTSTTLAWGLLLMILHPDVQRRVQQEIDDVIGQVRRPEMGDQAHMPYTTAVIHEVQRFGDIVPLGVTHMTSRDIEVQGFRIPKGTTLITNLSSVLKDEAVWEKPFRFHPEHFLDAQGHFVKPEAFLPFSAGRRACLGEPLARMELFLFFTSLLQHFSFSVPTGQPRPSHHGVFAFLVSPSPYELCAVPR

CYP450 2C19 = CYP450 2C19 (Homo sapiens, UniProt P33261); assay: CYP450 enzyme inhibition, 2C19; assay type: in vitro ADME; details: 10 μM
Chain of CYP450 2C19 (P33261 whole entry): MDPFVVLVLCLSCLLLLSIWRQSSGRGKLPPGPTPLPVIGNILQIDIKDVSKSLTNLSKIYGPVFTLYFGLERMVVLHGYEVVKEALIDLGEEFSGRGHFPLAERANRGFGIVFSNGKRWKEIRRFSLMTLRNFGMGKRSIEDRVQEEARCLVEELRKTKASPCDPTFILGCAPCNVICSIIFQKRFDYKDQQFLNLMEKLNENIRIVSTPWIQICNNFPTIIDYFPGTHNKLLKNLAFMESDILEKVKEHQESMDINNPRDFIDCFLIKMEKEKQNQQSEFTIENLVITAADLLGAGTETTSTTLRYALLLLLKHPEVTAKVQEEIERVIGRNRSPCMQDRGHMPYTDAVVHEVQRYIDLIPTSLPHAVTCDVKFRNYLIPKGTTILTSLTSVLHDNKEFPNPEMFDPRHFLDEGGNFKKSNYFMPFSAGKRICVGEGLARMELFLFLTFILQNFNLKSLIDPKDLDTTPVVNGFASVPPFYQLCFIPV
Experimental: (§6) Permeability was evaluated with a parallel artificial membrane permeability (PAMPA) assay using an artificially generated lipid-infused membrane.

CYP2C9 = CYP2C9 (Homo sapiens, UniProt P11712); assay: CYP450 enzyme inhibition, 2C9; assay type: in vitro ADME; details: 10 μM
Chain of CYP2C9 (P11712 whole entry): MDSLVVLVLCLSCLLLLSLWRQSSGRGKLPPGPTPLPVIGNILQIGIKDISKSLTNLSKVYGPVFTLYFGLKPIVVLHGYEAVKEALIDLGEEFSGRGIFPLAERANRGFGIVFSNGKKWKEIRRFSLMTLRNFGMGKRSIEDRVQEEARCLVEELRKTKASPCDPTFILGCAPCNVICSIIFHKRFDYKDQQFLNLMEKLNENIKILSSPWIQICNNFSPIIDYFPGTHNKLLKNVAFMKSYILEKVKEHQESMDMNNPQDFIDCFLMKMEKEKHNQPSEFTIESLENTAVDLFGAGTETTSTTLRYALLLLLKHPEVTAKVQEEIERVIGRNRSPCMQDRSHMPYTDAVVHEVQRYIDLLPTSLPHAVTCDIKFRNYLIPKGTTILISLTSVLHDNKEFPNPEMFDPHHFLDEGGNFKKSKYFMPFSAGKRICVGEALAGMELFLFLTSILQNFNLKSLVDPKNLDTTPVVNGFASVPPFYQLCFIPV
Experimental: as §6

NCI-H460 cells [2] = assay: MTT viability assay, NCI-H460; assay type: cell-based, human; details: 24 h
Experimental: The human NSCLC cell lines of NCI-H460, A549, HCC827, PC9, NCI-H1650, and NCI-H1975 were obtained from the American Type Culture Collection (Rockville, MD, USA). Cells were cultured in RPMI 1640 medium containing 10% FBS, 2 mmol/L L-glutamine, and 100 units/mL of penicillin and streptomycin and maintained at 37 °C in a humidified incubator containing 5% CO2.
Cell viability against gefitinib-, cisplatin-, and NA49-induced toxicity was determined using an MTT (Amersham Pharmacia Biotech) assay in 96-well plates. […] Next, cells were incubated with 100 µL of 5 mg/mL 3-(4,5-dimethylthiazol-2-yl)-2,5-diphenyltetrazolium bromide (Sigma Aldrich, M5655) for 2 h. After the MTT mixture was removed, 100 µL of DMSO was added to each well, and absorbance at 540 nm was measured using an ELISA plate reader (TECAN, Twinfinite PRO).

[3] = system: Salmonella typhimurium TA98; details: TA98, without S-9 mix; J2 40, NA49 200, positive controls 1-2 μg/plate
Experimental: To perform the Ames test of J2 and NA49, the number of revertant colonies was counted on each compound-treated plate at the maximum concentration at which the compound was soluble and nontoxic to the S. typhimurium tester strains (Supplementary Material S1). The ratio of the number of revertant colonies in the treated plate to colonies in the vehicle plate. […] For the hERG K^+ channel binding assay of J2 and NA49, the inhibitory activity against the hERG K^+ channel and its ligand was measured using a red fluorescent hERG channel ligand tracer. The final activity was assessed as a decrease in the degree of fluorescence polarization. […]
The test was conducted with maximum concentration at which the compound was
soluble and nontoxic to the S. typhimurium tester strains. #Factor = No. of revertant colonies
of treated plate colonies of vehicle control plate. […]

CYP450 3A4 = CYP450 3A4 (Homo sapiens, UniProt P08684); assay: CYP450 enzyme inhibition, 3A4; details: 10 μM
Chain of CYP450 3A4 (P08684 whole entry): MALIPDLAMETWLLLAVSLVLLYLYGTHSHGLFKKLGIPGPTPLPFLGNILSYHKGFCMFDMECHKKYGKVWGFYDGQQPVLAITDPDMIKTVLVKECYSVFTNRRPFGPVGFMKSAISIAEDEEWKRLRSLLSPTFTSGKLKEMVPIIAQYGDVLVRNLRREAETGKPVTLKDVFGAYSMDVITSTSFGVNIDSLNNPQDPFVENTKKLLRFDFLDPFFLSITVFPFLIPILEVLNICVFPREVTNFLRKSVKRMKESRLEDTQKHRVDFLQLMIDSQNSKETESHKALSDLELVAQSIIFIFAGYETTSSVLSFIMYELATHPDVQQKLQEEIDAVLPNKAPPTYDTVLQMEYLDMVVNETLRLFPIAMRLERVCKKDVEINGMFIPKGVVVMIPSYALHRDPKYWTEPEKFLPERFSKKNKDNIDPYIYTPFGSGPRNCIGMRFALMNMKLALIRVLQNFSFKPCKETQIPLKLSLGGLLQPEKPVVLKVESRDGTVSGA

CYP1A2 = target: T1, CYP1A2 (Homo sapiens, UniProt P05177); assay: in vitro
T1 sequence (P05177 1-516): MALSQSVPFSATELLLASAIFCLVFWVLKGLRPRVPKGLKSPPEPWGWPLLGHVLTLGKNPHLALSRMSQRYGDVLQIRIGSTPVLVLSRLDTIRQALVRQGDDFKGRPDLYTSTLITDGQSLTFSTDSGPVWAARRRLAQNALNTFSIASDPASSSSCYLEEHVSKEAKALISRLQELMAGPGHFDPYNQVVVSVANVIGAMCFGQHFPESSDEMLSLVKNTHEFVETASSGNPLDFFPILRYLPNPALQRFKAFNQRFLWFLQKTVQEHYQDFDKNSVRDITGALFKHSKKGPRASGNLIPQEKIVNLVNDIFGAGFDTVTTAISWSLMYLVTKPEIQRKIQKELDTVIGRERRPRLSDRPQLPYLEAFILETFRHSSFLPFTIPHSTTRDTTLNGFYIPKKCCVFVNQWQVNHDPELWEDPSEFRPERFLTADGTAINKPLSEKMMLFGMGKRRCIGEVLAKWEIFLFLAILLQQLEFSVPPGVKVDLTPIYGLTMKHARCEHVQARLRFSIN

COc1cc2ncnc(Nc3ccc(F)c(Cl)c3)c2cc1OCCCN1CCOCC1 [Gef, Gefitinib, reference compound]
Cell death (NCI-H460 cells [1]): less than 30% | Cell death (A549 cells): less than 30%

CN1CC[C@@]23CCCC[C@@H]2[C@@H]1Cc1ccc(O)cc13 [dextrophan, reference compound]
% inhibition of CYP450 2D6, positive control (CYP450 2D6): 94.0%

COc1ccc2nc([S+]([O-])Cc3ncc(CO)c(OC)c3C)[nH]c2c1 (centres unmarked) [OH-omeprazole, reference compound]
% inhibition of CYP450 2C19, positive control (CYP450 2C19): 93.2%

CCCCNC(=O)NS(=O)(=O)c1ccc(CO)cc1 [OH-tolbutamide, reference compound]
% inhibition of CYP450 2C9, positive control (CYP2C9): 91.7%

N.N.[Cl][Pt][Cl] [Cisplatin, cisplatin, reference compound]
IC50 (NCI-H460 cells [2]): 11.7 µM | Cell death (NCI-H460 cells [1]): less than 30% | Cell death (A549 cells): less than 30%

O=[N+]([O-])c1ccc2c(c1)Cc1ccccc1-2 [2-nitrofluorene, reference compound]
Factor (revertant colonies of treated plate/vehicle control plate) [3]: 28.9 | Revertant colonies/plate (Mean ± S.D.) [3]: 462 ± 24 colonies/plate

OCc1ncc2n1-c1ccc(Cl)cc1C(c1ccccc1F)=NC2 [OH-midazolam, reference compound]
% inhibition of CYP450 3A4, positive control (CYP450 3A4): 92.5%

[N-]=[N+]=[N-].[Na+] [sodium azide, reference compound]
Factor (revertant colonies of treated plate/vehicle control plate) [3]: 4.1 | Revertant colonies/plate (Mean ± S.D.) [3]: 441 ± 16 colonies/plate

CC(=O)Nc1ccc(O)cc1 [acetaminophen]
inhibition at 10 μM (CYP1A2): 92.4%
